Data as given in ChEMBL document CHEMBL1201862, “PubChem BioAssay data set” (2004).
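Step 1: Grow cells in 96-well plates. Step 2: Expose to compound for 48 hours at 5 concentrations. Step 3: Interpolate endpoints linearly; if unreached, use highest concentration. GI50 = concentration required for 50% inhibition of growth.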 Calls of active or inactive are those of the source. Cut-off read from the data, not from the text of the source: active = GI50 up to about 1.1 µM and inactive = higher.

Experiments:
Assay in all cases: inhibition of tumour cell growth, NCI panel, 48 h
[1] = tested on: EKVX
[2] = tested on: U-251
[3] = tested on: SF-539
[4] = tested on: MDA-MB-435
[5] = tested on: MCF7
[6] = tested on: NCI-H460
[7] = tested on: KM12
[8] = tested on: HL-60
[9] = tested on: HCC 2998
[10] = tested on: HCT-116
[11] = tested on: SW-620
[12] = tested on: HT-29
[13] = tested on: UO-31
[14] = tested on: A549
[15] = tested on: M14
[16] = tested on: NCI-H522
[17] = tested on: RPMI-8226
[18] = tested on: MOLT-4
[19] = tested on: RXF 393
[20] = tested on: SK-OV-3

| SMILES | GI50 [1] | GI50 [2] | GI50 [3] | GI50 [4] | GI50 [5] | GI50 [6] | GI50 [7] | GI50 [8] | GI50 [9] | GI50 [10] | GI50 [11] | GI50 [12] | GI50 [13] | GI50 [14] | GI50 [15] | GI50 [16] | GI50 [17] | GI50 [18] | GI50 [19] | GI50 [20] |
| --- | --- | --- | --- | --- | --- | --- | --- | --- | --- | --- | --- | --- | --- | --- | --- | --- | --- | --- | --- | --- |
| c1ccc2c(c1)SC1=C(SC(=C3SC4=C(S3)Sc3ccccc3S4)S1)S2 | > 100 µM (inactive) | > 100 µM (inactive) | > 100 µM (inactive) | > 100 µM (inactive) | > 100 µM (inactive) | > 100 µM (inactive) | > 100 µM (inactive) | > 100 µM (inactive) | > 100 µM (inactive) | > 100 µM (inactive) | > 100 µM (inactive) | > 100 µM (inactive) | > 100 µM (inactive) | > 100 µM (inactive) | > 100 µM (inactive) | > 100 µM (inactive) | > 100 µM (inactive) | > 100 µM (inactive) |  |  |
| CCCC/C=C/C1Cc2ccccc2CN1S(=O)(=O)c1ccc(C)cc1 (configuration not stated) | 13.7 µM (inactive) | 11.2 µM (inactive) | 15.7 µM (inactive) |  |  | 12.7 µM (inactive) | 9.91 µM (inactive) | 1.84 µM (inactive) | 12.1 µM (inactive) | 1.6 µM (inactive) | 11.2 µM (inactive) | 7.8 µM (inactive) | 5.6 µM (inactive) | 5.33 µM (inactive) | 11.4 µM (inactive) | 4.31 µM (inactive) | 2.07 µM (inactive) | 3.97 µM (inactive) | 10.8 µM (inactive) | 26.6 µM (inactive) |
| CCCOC(=O)c1cc(C(=CCC[C@H]2CC[C@@]3(C)[C@@H](CC[C@@H]4[C@@H]3CC[C@]3(C)[C@@H](C(C)CCCC(C)C)CC[C@@H]43)C2)c2cc(Cl)c(O)c(C(=O)OCCC)c2)cc(Cl)c1O (some centres not stated) | > 50 µM (inactive) | > 50 µM (inactive) |  | > 50 µM (inactive) |  | > 50 µM (inactive) | > 50 µM (inactive) | > 50 µM (inactive) | > 50 µM (inactive) | > 50 µM (inactive) | > 50 µM (inactive) | > 50 µM (inactive) |  |  |  |  | > 50 µM (inactive) | > 50 µM (inactive) |  |  |
| CCOc1ncn(-c2ccc(NC(=S)NC3OC(CO)C(O)C(O)C3O)cc2)n1 (configuration not stated) | > 100 µM (inactive) | > 100 µM (inactive) | > 100 µM (inactive) | > 100 µM (inactive) | > 100 µM (inactive) | > 100 µM (inactive) | > 100 µM (inactive) | > 100 µM (inactive) | > 100 µM (inactive) | > 100 µM (inactive) | > 100 µM (inactive) | > 100 µM (inactive) | > 100 µM (inactive) | > 100 µM (inactive) | > 100 µM (inactive) | > 100 µM (inactive) | > 100 µM (inactive) | > 100 µM (inactive) |  | > 100 µM (inactive) |
| C=CC1CCC[N+]1(CC(=O)OCC)Cc1ccccc1 (configuration not stated) | > 100 µM (inactive) | > 100 µM (inactive) |  | > 100 µM (inactive) | > 100 µM (inactive) | > 100 µM (inactive) |  | > 100 µM (inactive) | > 100 µM (inactive) | > 100 µM (inactive) | > 100 µM (inactive) | > 100 µM (inactive) | > 100 µM (inactive) | > 100 µM (inactive) | > 100 µM (inactive) |  | > 100 µM (inactive) | > 100 µM (inactive) |  | > 100 µM (inactive) |
| CO/C(=N\N=C\c1ccc(OC)c(OC)c1)c1ccncc1 | > 10 µM (inactive) | > 10 µM (inactive) | > 10 µM (inactive) |  | > 10 µM (inactive) | > 10 µM (inactive) | > 10 µM (inactive) | > 10 µM (inactive) | > 10 µM (inactive) |  | > 10 µM (inactive) |  | 9.55 µM (inactive) | > 10 µM (inactive) | > 10 µM (inactive) |  | > 10 µM (inactive) | > 10 µM (inactive) |  | > 10 µM (inactive) |
| Cc1ccc(C2SCC(=O)N2c2ccc(-c3ccc(-n4c(-c5ccccc5)nc5ccccc5c4=O)cc3)cc2)cc1 (configuration not stated) | 53.3 µM (inactive) | 73.3 µM (inactive) |  | 88.3 µM (inactive) | > 100 µM (inactive) | 59.6 µM (inactive) | 55.8 µM (inactive) | 31 µM (inactive) | > 100 µM (inactive) |  | > 100 µM (inactive) | 38.9 µM (inactive) | 18.6 µM (inactive) | > 100 µM (inactive) | 85.7 µM (inactive) | 37.2 µM (inactive) | > 100 µM (inactive) | 34.5 µM (inactive) |  | > 100 µM (inactive) |
| CCOC(=O)c1[nH]cc(C)c1-c1ccc2c(-c3ccccc3)nc3ccccc3n12 | 3.82 µM (inactive) | 3.01 µM (inactive) | 3.12 µM (inactive) | 2.23 µM (inactive) | 2.1 µM (inactive) | 2.92 µM (inactive) | 3.45 µM (inactive) |  | 2.26 µM (inactive) | 3.19 µM (inactive) | 3.13 µM (inactive) | 2.54 µM (inactive) | 3.86 µM (inactive) | 3.77 µM (inactive) | 5.55 µM (inactive) | 1.53 µM (inactive) |  | 2.31 µM (inactive) | 2.03 µM (inactive) | 4.4 µM (inactive) |
| O=C(O)c1ccc(NNc2cc(=O)[nH]c(=O)[nH]2)cc1 | > 100 µM (inactive) | > 100 µM (inactive) | > 100 µM (inactive) |  | > 100 µM (inactive) | > 100 µM (inactive) | > 100 µM (inactive) | > 100 µM (inactive) | > 100 µM (inactive) | > 100 µM (inactive) | > 100 µM (inactive) | > 100 µM (inactive) | > 100 µM (inactive) | > 100 µM (inactive) | > 100 µM (inactive) |  | > 100 µM (inactive) | > 100 µM (inactive) | > 100 µM (inactive) | > 100 µM (inactive) |
| CC(C)c1cc(=O)[nH]c2cc(N)ccc12 | > 100 µM (inactive) | > 100 µM (inactive) | > 100 µM (inactive) | > 100 µM (inactive) | > 100 µM (inactive) | > 100 µM (inactive) | > 100 µM (inactive) |  | > 100 µM (inactive) | > 100 µM (inactive) | > 100 µM (inactive) | > 100 µM (inactive) | > 100 µM (inactive) | > 100 µM (inactive) | > 100 µM (inactive) |  | > 100 µM (inactive) | > 100 µM (inactive) | > 100 µM (inactive) |  |
| Nc1ccc(C(=O)CC2(O)C(=O)Nc3c(Cl)cc(Cl)cc32)cc1 (configuration not stated) | > 100 µM (inactive) | 27.2 µM (inactive) | > 100 µM (inactive) |  |  | > 100 µM (inactive) | 83 µM (inactive) | 24.9 µM (inactive) | > 100 µM (inactive) | 66.7 µM (inactive) | 25.5 µM (inactive) | > 100 µM (inactive) | > 100 µM (inactive) | > 100 µM (inactive) | > 100 µM (inactive) | 42.5 µM (inactive) | 50.9 µM (inactive) | 46.8 µM (inactive) | > 100 µM (inactive) | > 100 µM (inactive) |
| O=C(O)CCCn1nnc2c(=O)[nH][nH]c(=O)c21 | > 100 µM (inactive) | > 100 µM (inactive) |  | > 100 µM (inactive) | > 100 µM (inactive) | > 100 µM (inactive) | > 100 µM (inactive) | > 100 µM (inactive) | > 100 µM (inactive) | > 100 µM (inactive) |  | > 100 µM (inactive) | > 100 µM (inactive) | > 100 µM (inactive) | > 100 µM (inactive) |  | > 100 µM (inactive) | > 100 µM (inactive) |  |  |
| COC(=O)NC1(NC(=O)OC)NC(=O)c2ccccc2N1 | > 100 µM (inactive) |  | > 100 µM (inactive) |  | > 100 µM (inactive) | > 100 µM (inactive) | 80.4 µM (inactive) | > 100 µM (inactive) | > 100 µM (inactive) | > 100 µM (inactive) | > 100 µM (inactive) | > 100 µM (inactive) | > 100 µM (inactive) | < 0.01 µM (active) | > 100 µM (inactive) | > 100 µM (inactive) |  | > 100 µM (inactive) |  | > 100 µM (inactive) |
| CNC(=O)N(C)C(=O)c1ccccc1C(=O)N(C)C(=O)NC | > 10 µM (inactive) | > 10 µM (inactive) | > 10 µM (inactive) |  | > 10 µM (inactive) | > 10 µM (inactive) | > 10 µM (inactive) | > 10 µM (inactive) | > 10 µM (inactive) | > 10 µM (inactive) | > 10 µM (inactive) | > 10 µM (inactive) | > 10 µM (inactive) | > 10 µM (inactive) | > 10 µM (inactive) | > 10 µM (inactive) | > 10 µM (inactive) | > 10 µM (inactive) | > 10 µM (inactive) | > 10 µM (inactive) |
| O=c1[nH]n2c(=O)cc[nH]c2c1-c1nnns1 | > 100 µM (inactive) | > 100 µM (inactive) | > 100 µM (inactive) |  |  | > 100 µM (inactive) | > 100 µM (inactive) | > 100 µM (inactive) | > 100 µM (inactive) | > 100 µM (inactive) | > 100 µM (inactive) | > 100 µM (inactive) | > 100 µM (inactive) | > 100 µM (inactive) | > 100 µM (inactive) | > 100 µM (inactive) | > 100 µM (inactive) | > 100 µM (inactive) | > 100 µM (inactive) | > 100 µM (inactive) |
| O=c1c2c(nc3n1CCC3)sc1c(O)c(Br)ccc12 | 23.9 µM (inactive) | 20.2 µM (inactive) | 15.5 µM (inactive) |  |  | 16.4 µM (inactive) | 14.3 µM (inactive) | 14.7 µM (inactive) | 17.1 µM (inactive) | 15.2 µM (inactive) | 12.5 µM (inactive) | 12.5 µM (inactive) | 18.8 µM (inactive) | 15.4 µM (inactive) | > 100 µM (inactive) | 16 µM (inactive) | 21.3 µM (inactive) | 11.1 µM (inactive) | 29.9 µM (inactive) | 23.9 µM (inactive) |
